According to patent EP4703354A1, “COMPOUND AS CCR6 ANTAGONIST, AND PHARMACEUTICAL COMPOSITION AND USE THEREOF” (Wuhan Createrna Science and Technology Co.,Ltd., priority 2023, dated 2024):
Where two headings read alike, the source gives them in different places.

Assays:
[1] = in vitro liver microsome metabolic stability, rat; assay type: in vitro ADME; settings: Rat liver microsomes, 37°C
Method in brief: (§1)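 Test compound at 1 µM final (100 µM working solution diluted 1:100) incubated at 37°C with liver microsomes in pH 7.4 phosphate buffer with NADP/G6P/G6PDH/MgCl2 regenerating system; sampled 0–30 min, LC-MS/MS vs internal standard. T1/2 = 0.693/k from remaining-fraction decay.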

human CCR6 = target: T1, human CCR6 (Homo sapiens, UniProt P51684); assay: human CCR6 calcium flux activity (FLIPR, HEK293 cells stably expressing human CCR6, CCL20 stimulation); assay type: cell-based; settings: HEK293 cells stably expressing human CCR6, EC80 human MIP-3 alpha/CCL20; read-out: CCR6 inhibitory activity, IC50
T1 construct: expressed in transfected cells; host or cells: HEK293
T1 sequence (P51684 1-374): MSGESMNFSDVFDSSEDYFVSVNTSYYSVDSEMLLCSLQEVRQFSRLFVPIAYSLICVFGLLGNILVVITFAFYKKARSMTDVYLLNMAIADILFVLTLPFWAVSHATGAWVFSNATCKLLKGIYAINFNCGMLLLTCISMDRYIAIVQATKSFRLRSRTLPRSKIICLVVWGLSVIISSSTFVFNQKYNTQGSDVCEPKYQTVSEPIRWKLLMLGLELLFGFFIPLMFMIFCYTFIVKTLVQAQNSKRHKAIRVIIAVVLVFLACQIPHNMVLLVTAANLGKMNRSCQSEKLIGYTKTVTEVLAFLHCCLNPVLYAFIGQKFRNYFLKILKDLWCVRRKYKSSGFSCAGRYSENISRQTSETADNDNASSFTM
Method in brief: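 Read-out is the RFUMax−RFUMin calcium signal (494/516 nm, 90 s) after EC80 CCL20 addition, fitted four-parameter for IC50. Before agonist, Fluo-4 Direct-loaded cells sat with compound 50 min at 37 °C plus 10 min at room temperature.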

[2] = in vitro liver microsome metabolic stability, human; assay type: in vitro ADME; settings: Human liver microsomes, 37°C
Method in brief: as §1

[3] = in vitro liver microsome metabolic stability, mouse; assay type: in vitro ADME; settings: Mouse liver microsomes, 37°C
Protocol: Preparation of working solutions for test compounds and standards: An appropriate amount of the compound was accurately weighed and dissolved in a corresponding volume of suitable solvent to prepare 1 mM stock solutions of the test compounds and standards. The stock solutions were then diluted with appropriate solvent to obtain 100 µM working solutions of the test compounds, ensuring that the DMSO content in the working solutions remained below 10%.
The internal standard compound testosterone (or tolbutamide) and its corresponding solvent, internal standard concentration (200 ng/mL), were selected based on the properties of the test compound.
• Solution A: 0.1 mol/L K2HPO4 (2.28 g K2HPO4·3H2O was dissolved in 100 mL of double-distilled water); • Solution B: 0.1 mol/L KH2PO4 (1.36 g KH2PO4 was dissolved in 100 mL of double-distilled water); • 80.2 mL of Solution A and 19.8 mL of Solution B were mixed thoroughly, and the pH was adjusted to 7.4.
37.5 mg of glycine was weighed, dissolved in 100 mL of ultrapure water, and adjusted to pH 8.0 with NaOH.
1.25 mg of glucose-6-phosphate dehydrogenase (400 U/mg) was weighed (the specific amount weighed was calculated based on the activity of the purchased glucose-6-phosphate dehydrogenase), dissolved in 1 mL of glycine buffer to a concentration of 500 U/mL, aliquoted into 20 µL per tube, and stored at -20°C for future use.
7.83 mg of NADP, 0.06 mL of D-glucose-6-phosphate (260 mg/mL), and 10.17 mg of MgCl2·6H2O were precisely weighed.
The mixture was dissolved in 1 mL of pure water. The cofactor ratio composition: NADP 10 mM, D-glucose-6-phosphate 60 mM, MgCl2·6H2O 50 mM.
The reaction system (taking a 500 µL system as an example) was composed of the following solution ratios: 416.5 µL phosphate buffer, 5 µL compound working solution, 25 µL liver microsomes, 3.5 µL glucose-6-phosphate dehydrogenase, and 50 µL cofactor solution. The total incubation volume could be adjusted according to experimental requirements.
416.5 µL of phosphate buffer was taken, 25 µL of liver microsomes, 3.5 µL of glucose-6-phosphate dehydrogenase, and 50 µL of cofactor solution were added, vortexed twice to mix, and preincubated in a 37°C water bath for 5 minutes. Then, 5 µL of the test compound working solution was added, vortexed twice to mix, each time for 2-3 seconds, and placed in a 37°C water bath to initiate the reaction, with two parallel samples set. At 0.5 min, 1 min, 2 min, 5 min, 15 min, and 30 min after the reaction, 50 µL of the mixture was taken and added to centrifuge tubes containing 200 µL of 0°C pre-cooled internal standard working solution to terminate the reaction, vortexed for 1 minute to mix, and centrifuged at 13,000 rpm for 10 minutes in a 4°C pre-cooled high-speed centrifuge. The supernatant was collected for analysis. After the compound was added and vortex-mixed, 50 µL of the mixture was rapidly transferred to a centrifuge tube containing 200 µL of a pre-cooled (0°C) internal standard working solution to terminate the reaction, vortex-mixed for 1 minute, and used as the relative zero-point sample (relative to the standard group). The sample was then placed into a 37°C water bath to initiate the reaction, and timing was started.
The sample analysis of the test compound was performed using the liquid chromatography-tandem mass spectrometry (LCMS/MS) method. The semi-quantitative determination was performed using the ratio of the analyte peak area to the internal standard peak area. The retention times of the analyte and internal standard, chromatogram acquisition, and chromatogram integration were processed using Analyst software.
The in vitro elimination rate constant k of the test compound and the control compound was determined by converting the ratio of the peak area of the test compound to the internal standard into the remaining rate, and T1/2 was then calculated according to the following formula. T1/2 = (Ln2)/(k) = (0.693)/(k) [formula] Table 3. […]

[4] = in vitro liver microsome metabolic stability, beagle dog; assay type: in vitro ADME; settings: Beagle dog liver microsomes, 37°C
Method in brief: as §1

[5] = in vivo pharmacokinetic study in SD rats; settings: rat; for bioavailability: 1 mg/kg PO vs 1 mg/kg IV, read-out: Oral bioavailability F (%); for AUC(0-t) / Cmax / half-life: 1 mg/kg
Method in brief: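 Male SD rats (180-200 g), 3 per route: single fasted oral gavage in 1% Tween 80 or tail-vein IV bolus in 50% PEG400. Orbital blood into EDTA-K2 sampled to 8 h; plasma analysed and PK parameters derived by non-compartmental analysis.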

SMILES	Liver microsome T1-2 (min) Rat [1] [min]	IC50 (human CCR6) [µM]	Liver microsome T1-2 (min) Human [2] [min]	Liver microsome T1-2 (min) Mouse [3] [min]	Liver microsome T1-2 (min) Beagle dog [4] [min]	other results
CN(C)C(=O)c1nccc(Nc2c(NC(c3ncccn3)C3(C)CCCC3)c(=O)c2=O)c1O (racemic) [compound 017]	324.15	0.01	1176.24	1273.80	848.60	–
CN(C)C(=O)c1nccc(Nc2c(N[C@@H](c3cc(F)cc(F)n3)C3(C)CCCC3)c(=O)c2=O)c1O [compound 022, (R)-4-((2-(((4,6-difluoropyridin-2-yl)(1-methylcyclopentyl)methyl)amino)-3,4-dioxocyclobut-1-en-1-yl)amino)-3-hydroxy-N,N-dimethylpicolinamide]	116.86	0.0074	271.15	1925.01	271.86	–
CN(C)C(=O)c1nccc(Nc2c(NC(c3nc(F)ccc3F)C3(C)CC(F)(F)CO3)c(=O)c2=O)c1O (stereo not drawn) [compound 062, 4-((2-(((4,4-difluoro-2-methyltetrahydrofuran-2-yl)(3,6-difluoropyridin-2-yl)methyl)amino)-3,4-dioxocyclobut-1-en-1-yl)amino)-3-hydroxy-N,N-dimethylpicolinamide]	801.17	0.0329	1048.05	228.33	1250.74	–
CN(C)C(=O)c1nccc(Nc2c(NC(c3nc(Cl)ccc3F)C3(C)CC4CC4C3)c(=O)c2=O)c1O (stereo not drawn) [compound 085, 4-((2-(((6-chloro-3-fluoropyridin-2-yl)(3-methylbicyclo[3.1.0]hexan-3-yl)methyl)amino)-3,4-dioxocyclobut-1-en-1-yl)amino)-3-hydroxy-N,N-dimethylpicolinamide]	56.96	0.038	226.52	54.79	204.66	–
CN(C)C(=O)c1nccc(Nc2c(NC(C#CC3CCC3)C3(C)CC(F)(F)CO3)c(=O)c2=O)c1O (stereo not drawn) [compound 110]	97.61	–	324.84	1846.01	369.92	bioavailability ([5]; in vivo): 60.2%; AUC(0-t) ([5]; in vivo, IV): 0.739 µg·h/mL; Cmax ([5]; in vivo, IV): 3.78 µg/mL; half-life ([5]; in vivo, IV): 17.4 min; AUC(0-t) ([5]; in vivo, PO): 0.444 µg·h/mL; Cmax ([5]; in vivo, PO): 0.268 µg/mL; half-life ([5]; in vivo, PO): 57.6 min
CN(C)C(=O)c1nccc(Nc2c(NC(c3nc(F)ccc3F)C3(C)CC4CC4C3)c(=O)c2=O)c1O (stereo not drawn) [compound 126, 4-((2-(((3,6-difluoropyridin-2-yl)(3-methylbicyclo[3.1.0]hexan-3-yl)methyl)amino)-3,4-dioxocyclobut-1-en-1-yl)amino)-3-hydroxy-N,N-dimethylpicolinamide]	58.22	–	531.62	≥120	331.52	bioavailability ([5]; male, plasma): 26.9%; AUC(0-t) ([5]; male, plasma, IV): 1.55 µg·h/mL; Cmax ([5]; male, plasma, IV): 3.9 µg/mL; AUC(0-t) ([5]; male, plasma, PO): 0.417 µg·h/mL; Cmax ([5]; male, plasma, PO): 0.266 µg/mL

Now from value to compound, other results behind:

Liver microsome T1-2 (min) Rat [1] [min]	IC50 (human CCR6) [µM]	Liver microsome T1-2 (min) Human [2] [min]	Liver microsome T1-2 (min) Mouse [3] [min]	Liver microsome T1-2 (min) Beagle dog [4] [min]	SMILES	other results
83.07	–	572.07	19686.4	220.11	Cc1cccnc1[C@@H](Nc1c(Nc2ccnc(C(=O)N(C)C)c2O)c(=O)c1=O)[C@]1(C)CCC(F)(F)C1 (single isomer, unassigned) [125D]	–
32.18	–	343.09	550.74	222.01	Cc1cccnc1[C@@H](Nc1c(Nc2ccnc(C(=O)N(C)C)c2O)c(=O)c1=O)[C@@]1(C)CCC(F)(F)C1 [125C]	–
85.28	0.007	281.53	1127.82	202.32	CN(C)C(=O)c1nccc(Nc2c(N[C@@H](c3cccc(F)n3)C3(C)CCCC3)c(=O)c2=O)c1O [compound 002, (R)-4-((2-(((6-fluoropyridin-2-yl)(1-methylcyclopentyl)methyl)amino)-3,4-dioxocyclobut-1-en-1-yl)amino)-3-hydroxy-N,N-dimethylpicolinamide]	–
90.26	0.0123	672.88	6368.42	320.98	CN(C)C(=O)c1nccc(Nc2c(N[C@@H](c3ccccn3)C3(C)CCCC3)c(=O)c2=O)c1O [compound 004, (R)-3-hydroxy-N,N-dimethyl-4-((2-(((1-methylcyclopentyl)(pyridin-2-yl)methyl)amino)-3,4-dioxocyclobut-1-en-1-yl)amino)picolinamide]	–
39.70	0.0039	197.68	≥120	200.21	Cc1cc(F)cnc1[C@H](Nc1c(Nc2ccnc(C(=O)N(C)C)c2O)c(=O)c1=O)C1(C)CCCC1 [compound 065, (R)-4-((2-(((5-fluoro-3-methylpyridin-2-yl)(1-methylcyclopentyl)methyl)amino)-3,4-dioxocyclobut-1-en-1-yl)amino)-3-hydroxy-N,N-dimethylpicolinamide]	–
